Laboratory results as given in patent publication US20250213558A1, “T-TYPE CALCIUM CHANNEL MODULATORS COMPRISING A PIPERAZINE OR 1,4-DIAZEPANE CORE AND METHODS OF USE THEREOF” (Praxis Precision Medicines, Inc., priority 2022, published 2025).
Where two headings read alike, the source gives them in different places.

Target: T1, Human Cav3.1 calcium channel (Homo sapiens, UniProt O43497)
T1 construct: expressed in transfected cells; host or cells: HEK-293 natClytin/TASK1+Cav3.1 cell line
Assay: Human Cav3.1 calcium channel patch clamp assay (SyncroPatch 384PE; single point and IC50, voltage dependent block)
Format: cell-based
Details: for % Inhibition (Single Point Data): Testing Conc 1.25, patch clamp
Procedure, shortened: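 Automated whole-cell patch clamp at room temperature, cells held at −120 mV; 100 ms step to −20 mV (resting block), then 1600 ms at −65 mV and a second −20 mV step (voltage-dependent block), every 15 s. Peak currents averaged over last 3 sweeps; % inhibition relative to nickel-sensitive current.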

[1] = HEK-293 natClytin/TASK1+Cav3.1 cell line
[2] = voltage dependent block (VDB), HEK-293 natClytin/TASK1+Cav3.1 cell line, read-out: Cav3.1 IC50

T1 sequence (O43497 whole entry): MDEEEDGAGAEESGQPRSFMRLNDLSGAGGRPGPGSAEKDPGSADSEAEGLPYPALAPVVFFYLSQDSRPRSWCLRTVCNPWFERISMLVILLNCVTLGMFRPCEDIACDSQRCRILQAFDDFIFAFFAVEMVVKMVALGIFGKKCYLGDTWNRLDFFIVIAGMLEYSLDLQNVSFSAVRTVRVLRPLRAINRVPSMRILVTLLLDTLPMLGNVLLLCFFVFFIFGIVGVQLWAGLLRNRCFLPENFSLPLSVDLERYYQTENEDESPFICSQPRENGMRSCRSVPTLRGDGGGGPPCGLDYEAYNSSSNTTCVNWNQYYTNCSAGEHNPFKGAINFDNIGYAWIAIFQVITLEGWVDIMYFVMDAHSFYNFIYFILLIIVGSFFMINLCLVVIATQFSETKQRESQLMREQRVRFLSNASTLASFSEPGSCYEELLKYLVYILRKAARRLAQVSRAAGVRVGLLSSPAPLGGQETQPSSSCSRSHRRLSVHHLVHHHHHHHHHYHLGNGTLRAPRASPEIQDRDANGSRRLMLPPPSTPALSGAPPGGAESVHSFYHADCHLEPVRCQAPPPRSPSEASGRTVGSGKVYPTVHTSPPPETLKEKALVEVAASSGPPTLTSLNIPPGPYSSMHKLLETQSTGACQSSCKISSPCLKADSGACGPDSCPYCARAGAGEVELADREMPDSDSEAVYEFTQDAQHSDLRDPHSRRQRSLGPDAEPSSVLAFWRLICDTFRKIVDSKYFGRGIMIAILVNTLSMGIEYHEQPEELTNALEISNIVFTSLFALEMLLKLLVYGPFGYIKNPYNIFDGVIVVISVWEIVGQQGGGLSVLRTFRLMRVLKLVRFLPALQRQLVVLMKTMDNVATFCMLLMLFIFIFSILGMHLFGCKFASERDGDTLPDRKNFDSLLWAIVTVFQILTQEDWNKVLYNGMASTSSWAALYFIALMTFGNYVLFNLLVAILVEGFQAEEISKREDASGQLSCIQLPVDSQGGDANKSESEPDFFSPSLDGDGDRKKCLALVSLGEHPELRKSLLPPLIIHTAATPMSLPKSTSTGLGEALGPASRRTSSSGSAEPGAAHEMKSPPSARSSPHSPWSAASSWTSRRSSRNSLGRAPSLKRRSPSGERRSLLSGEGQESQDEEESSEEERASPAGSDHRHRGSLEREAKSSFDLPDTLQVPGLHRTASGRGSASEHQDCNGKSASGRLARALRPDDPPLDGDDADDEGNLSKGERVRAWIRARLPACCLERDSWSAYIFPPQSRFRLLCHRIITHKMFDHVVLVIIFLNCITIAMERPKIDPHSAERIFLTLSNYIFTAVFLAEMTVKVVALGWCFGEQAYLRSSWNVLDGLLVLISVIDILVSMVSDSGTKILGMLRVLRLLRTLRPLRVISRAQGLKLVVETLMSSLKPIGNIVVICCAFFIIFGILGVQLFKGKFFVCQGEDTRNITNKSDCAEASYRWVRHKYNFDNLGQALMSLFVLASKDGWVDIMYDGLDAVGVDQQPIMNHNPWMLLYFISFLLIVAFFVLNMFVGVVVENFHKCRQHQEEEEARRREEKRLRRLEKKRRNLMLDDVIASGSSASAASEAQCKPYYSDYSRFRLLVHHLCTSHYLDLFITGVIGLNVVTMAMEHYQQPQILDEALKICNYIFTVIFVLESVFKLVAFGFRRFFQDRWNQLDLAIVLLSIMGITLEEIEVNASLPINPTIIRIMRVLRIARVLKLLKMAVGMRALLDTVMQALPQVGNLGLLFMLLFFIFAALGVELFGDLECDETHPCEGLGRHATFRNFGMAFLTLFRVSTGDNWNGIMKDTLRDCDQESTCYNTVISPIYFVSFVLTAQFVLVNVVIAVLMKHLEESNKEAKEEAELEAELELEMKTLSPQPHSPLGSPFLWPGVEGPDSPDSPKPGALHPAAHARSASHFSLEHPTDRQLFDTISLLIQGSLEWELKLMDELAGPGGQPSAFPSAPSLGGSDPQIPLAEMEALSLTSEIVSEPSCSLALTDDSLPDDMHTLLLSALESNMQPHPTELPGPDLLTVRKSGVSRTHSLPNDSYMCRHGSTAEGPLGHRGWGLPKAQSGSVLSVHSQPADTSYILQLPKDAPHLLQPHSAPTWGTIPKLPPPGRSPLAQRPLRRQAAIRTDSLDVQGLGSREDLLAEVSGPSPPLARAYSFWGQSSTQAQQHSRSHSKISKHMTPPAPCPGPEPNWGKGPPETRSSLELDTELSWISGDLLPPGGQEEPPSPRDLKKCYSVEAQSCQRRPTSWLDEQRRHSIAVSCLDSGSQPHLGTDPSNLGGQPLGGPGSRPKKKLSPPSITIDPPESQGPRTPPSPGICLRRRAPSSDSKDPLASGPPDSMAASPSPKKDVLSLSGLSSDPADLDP

SMILES | % Inhibition (Single Point Data) [1] | IC50 [2] | IC50
N#CC1(CN2C3CC2CN(CC(=O)Nc2cc(F)cc(Cl)c2)C3)CCCCC1 [Compound 51] | 29.781% | 1440 nM | –
O=S(=O)(CCN1C2CC1CN(Cc1nc3c(Cl)ccc(F)c3[nH]1)C2)c1ccccc1 [Compound 168] | 66.949% | 711 nM | –
O=C(CN1C[C@@H]2C[C@H]1CN2CC1(O)CCC(F)(F)CC1)NC12CC3CC(CC(C3)C1)C2 [Compound 277] | 56.486% | 886 nM | –
CC(C)(C)NC(=O)CN1C2CC1CN(CC(=O)Nc1ccc(F)c(OC(F)(F)F)c1)C2 [Compound 242] | 93.661% | 177 nM | –
COC12CC3CC(CC(NC(=O)CN4C[C@@H]5C[C@H]4CN5CC(=O)NC(C)(C)C)(C3)C1)C2 [Compound 342] | 25.743% | 1350 nM | –
CC(C)(C)NC(=O)CN1C2CC1CN(CC(=O)Nc1cc(Cl)ccc1F)C2 [Compound 14] | 39.34% | 1710 nM | –
Cc1cccc2[nH]c(C(C)N3CC4CC(C3)N4CC(=O)NC(C)(C)C)nc12 (centres unmarked) [Compound 199] | 54.078% | 864 nM | –
CC(C)(NC(=O)CN1CC2CC(C1)N2Cc1nc2c(Cl)ccc(F)c2[nH]1)C(F)(F)F [Compound 127] | 52.415% | 992 nM | –
CC(C)(C)NC(=O)CN1C[C@H]2COC[C@@H](C1)[C@H]2CNC(=O)c1cc(F)cc(Cl)c1 [Compound 370] | – | 1740 nM | –
COc1cccc(NC(=O)CN2CC3CC(C2)N3CC(=O)NC(C)(C)C)c1 [Compound 208] | 51.139% | 1010 nM | –
O=C(CN1CC2CC(C1)N2CCS(=O)(=O)c1ccccc1)Nc1cc(F)cc(Cl)c1 [Compound 171] | 34.047% | 1420 nM | –
COc1cc(NC(=O)CN2C[C@@H]3C[C@H]2CN3CC(=O)NC(C)(C)C)cc(F)c1F [Compound 354] | – | 94 nM | –
CC(C)(C)NC(=O)CN1CC2CCC1CN2Cc1nc2c(Cl)cc(F)cc2[nH]1 (centres unmarked) [Compound 63] | 93.839% | 167 nM | –
O=C(CN1CC2CC(C1)N2CC(F)(F)C1CCCCC1)Nc1cc(F)cc(Cl)c1 [Compound 226] | 39.507% | – | –
Cc1cc(F)cc(NC(=O)CN2CC3CC(C2)N3CC(=O)NC(C)(C)C)c1 [Compound 215] | 100% | – | –
CC1(C)CCN1C(=O)CN1C2CCC1CN(Cc1nc3c(Cl)cc(F)cc3[nH]1)C2 [Compound 86] | 103.03% | 150 nM | –
O=C(CN1C[C@@H]2C[C@H]1CN2CCC1CCC(F)(F)CC1)NC12CC3CC(CC(C3)C1)C2 [Compound 318] | 88.753% | 304 nM | –
CC(C(=O)Nc1cc(F)cc(Cl)c1)N1C[C@@H]2C[C@H]1CN2CC(=O)NC1(C(F)(F)F)CC1 (some centres unmarked) [Compound 262] | 87.794% | 215 nM | –
CC(C)(C)NC(=O)CN1C2CC1CN(CC(=O)Nc1ccn(Cc3ccc(C#N)cn3)n1)C2 [Compound 313] | −11.969% | – | –
Cc1cccc2[nH]c(CN3CC4CC(C3)N4CCC3CCC(F)(F)CC3)nc12 [Compound 157] | 79.835% | 297 nM | –

SMILES | % Inhibition (Single Point Data) [1] | IC50 [2] | IC50
CC(C)(NC(=O)CN1CC2CC1CN2CC(=O)Nc1cc(F)cc(OC(F)F)c1)C(F)(F)F (centres unmarked) [Compound 55] | 76.829% | – | –
OC1(CN2C3CC2CN(Cc2nc4c(Cl)cc(F)cc4[nH]2)C3)CCC(F)(F)CC1 [Compound 151] | 95.252% | – | –
O=C(CN1CC2CC(C1)N2CC(=O)NC1(C(F)(F)F)CC1)Nc1ccc(F)c(OC(F)(F)F)c1 [Compound 243] | 93.979% | 137 nM | –
Fc1cc(Cl)c2nc(CN3CC4CC(C3)N4CCOC3CCOCC3)[nH]c2c1 [Compound 146] | 41.657% | 1280 nM | –
COc1ccc(F)c2[nH]c(CN3CC4CC(C3)N4CC(=O)NC(C)(C)C(F)(F)F)nc12 [Compound 183] | 95.323% | – | 87.4 nM
CC(C)(C)NC(=O)CN1C[C@H]2COC[C@@H](C1)[C@@H]2CNC(=O)c1cc(F)cc(Cl)c1 [Compound 369] | – | 499 nM | –
CC(C)(C)NC(=O)CN1C[C@@H]2C[C@H]1CN2CC(=O)Nc1cccc(OC(F)F)c1 [Compound 253] | 38.026% | 1310 nM | –
Cc1ccc(NC(=O)CN2C[C@@H]3C[C@H]2CN3CC(=O)NC2(C(F)(F)F)CC2)cc1Cl [Compound 355] | – | 1070 nM | –
[2H]C([2H])([2H])C(NC(=O)CN1CC2CC1CN2CC(=O)Nc1cc(F)cc(Cl)c1)(C([2H])([2H])[2H])C([2H])([2H])[2H] (centres unmarked) [Compound 57] | 95.078% | – | –
CC(C)(C)NC(=O)CN1CC2COCC(C1)C2CC(=O)Nc1cc(F)cc(Cl)c1 (centres unmarked) [Compound 368] | – | 126 nM | –
Cc1cc(F)cc(NC(=O)CN2C[C@@H]3C[C@H]2CN3CC(=O)NC(C)(C)C)c1 [Compound 276] | 71.467% | 474 nM | –
CC(C)(C)NC(=O)CN1C2CC1CN(Cc1nc3c(Cl)cc(F)cc3[nH]1)C2 [Compound 62, N-(tert-butyl)-2-(3-((4-chloro-6-fluoro-1H-benzo[d]imidazol-2-yl)methyl)-3,6-diazabicyclo[3.1.1]heptan-6-yl)acetamide] | 102.05% | – | < 78.2 nM
CC(C)(C)NC(=O)CN1C[C@H]2C[C@@H]1CN2CC(=O)Nc1cc(F)cc(Cl)c1 [Compound 59] | 49.275% | 925 nM | –
CC(C)(C)NC(=O)CN1C2CC1CN(C(=O)c1nc3c(Cl)cc(F)cc3[nH]1)C2 [Compound 210] | – | 1910 nM | –
Cc1cc(F)cc2[nH]c(CN3CC4CC(C3)N4CCC3CCOCC3)nc12 [Compound 205] | 16.681% | 4680 nM | –
CC(C)(C)NC(=O)CN1C[C@@H]2C[C@H]1CN2CC(=O)NC12CC3CC(CC(C3)C1)C2 [Compound 259] | 91.279% | – | –
CC(C)(C)NC(=O)CN1C[C@@H]2C[C@H]1CN2C(=O)NCC12CC3CC(CC(C3)C1)C2 [Compound 290] | 8.7515% | – | –
CC(C)(C)NC(=O)CN1C2CC1CN(CC(=O)Nc1cccc(Cl)c1)C2 [Compound 11] | 81.305% | – | –
Cc1cc(F)cc2[nH]c(CN3CC4CCC(C3)N4CC(=O)NC(C)(C)C)nc12 [Compound 190] | 94.944% | 210 nM | –
O=C(CN1CC2CC(C1)N2CC(=O)NC1(C(F)(F)F)CC1)Nc1ccc(F)c(Cl)c1 [Compound 240] | 80.113% | 329 nM | –

SMILES | % Inhibition (Single Point Data) [1] | IC50 [2] | IC50
Cc1ccc2ccnc(NCC3CCN(CC(=O)NC(C)(C)C)CC3)c2n1 [Compound 102] | 25.803% | 4430 nM | –
CC(C)(C)NC(=O)CN1CC[C@H](CNc2nccc3ccc(Cl)cc23)CC1=O [Compound 45] | 58.802% | – | –
CC(C)(C)NC(=O)CN1C[C@H]2C[C@@H]1CN2CC(=O)Nc1cc(F)cc(OC(F)F)c1 [Compound 21] | 73.828% | – | –
CC(C)(C)NC(=O)CN1C[C@@H]2C[C@H]1CN2CC(=O)NCC12CC3CC(CC(C3)C1)C2 [Compound 285] | 45.897% | 1270 nM | –
CC(C)(C)NC(=O)CN1C2CC1CN(CC(=O)Nc1ccc(F)c(C(F)F)c1)C2 [Compound 250] | 86.981% | 377 nM | –
O=C(CN1CC2CC(C1)N2CC(F)C1CCCCC1)Nc1cc(F)cc(Cl)c1 (centres unmarked) [Compound 49] | 44.843% | 1160 nM | –
Cc1cc(NC(=O)CN2C[C@@H]3C[C@H]2CN3CC(=O)NC(C)(C)C)ccc1F [Compound 341] | 62.973% | 447 nM | –
CN(C(=O)CN1C2CC1CN(Cc1nc3c(Cl)cc(F)cc3[nH]1)C2)C(C)(C)C [Compound 101] | 96.57% | – | –
O[C@H]1CC[C@@H](OCCN2C3CC2CN(Cc2nc4c(Cl)cc(F)cc4[nH]2)C3)CC1 [Compound 132] | 6.2687% | 5900 nM | –
O=C(CN1CC2CC1CN2CC(=O)NC1(C(F)(F)F)CC1)Nc1ccc(F)c(Cl)c1 (centres unmarked) [Compound 238] | 79.048% | – | –
O=C(CN1CC2CC1CN2CC(=O)NC1(C(F)(F)F)CC1)Nc1cc(F)cc(Cl)c1 (centres unmarked) [Compound 223] | 75.83% | 1250 nM | –
CC(C)(C)NC(=O)CN1C[C@@H]2C[C@H]1CN2CC(=O)Nc1cc(F)c(F)c(OC(F)F)c1 [Compound 356] | – | 74 nM | –
CC(C)(C)NC(=O)CN1C2CC1CN(CC(=O)NC13CC4CC(CC(Cl)(C4)C1)C3)C2 [Compound 345] | 42.634% | 1190 nM | –
Fc1cc(Cl)c2nc(CN3CCN(Cc4cccc(Cl)c4)CC3)[nH]c2c1 [Compound 67] | 83.039% | 490 nM | –
CC1(CCN2C3CC2CN(Cc2nc4c(Cl)cc(F)cc4[nH]2)C3)CCC1 [Compound 109] | 98.531% | – | –
O=C(CN1C[C@@H]2C[C@H]1CN2CC(=O)NC1(C(F)(F)F)CC1)Nc1cc(F)c(F)c(OC(F)F)c1 [Compound 359] | – | 176 nM | –
CC(c1nc2c(Cl)cc(F)cc2[nH]1)N1CC2CC(C1)N2CC(=O)NC(C)(C)C (centres unmarked) [Compound 200] | 93.175% | – | –
Cc1cc(NC(=O)CN2C[C@@H]3C[C@H]2CN3CC(=O)NC2(C(F)(F)F)CC2)ccc1F [Compound 340] | 50% | – | –
CC(C)(C)NC(=O)CN1C2CC1CN(Cc1nc3c(C(F)(F)F)cccc3[nH]1)C2 [Compound 122] | 80.218% | 224 nM | –
CC(C)(C)NC(=O)CN1C2CC(CC(=O)Nc3cc(F)cc(Cl)c3)CC1C2 (centres unmarked) [Compound 373] | – | 5820 nM | –
